Assay results as given in patent US20230149400A1, “METHODS AND COMPOSITIONSFOR TREATING VIRAL INFECTIONS” (ACLARIS THERAPEUTICS, INC., priority 2020, published 2023).
Like-named read-outs stand apart in the source and are kept apart here.

Columns and labels:
[1] = tested on: lipopolysaccharide (TLR4)-stimulated cytokines and chemokines; experiment: Ex vivo LPS (TLR4)-stimulated cytokine/chemokine production in whole blood of subjects given oral ATI-450; set-up: species or system human; settings: for inhibition at 50 mg: Homo sapiens, po, both cohorts (100 mg once daily; 50 mg twice daily), compared to placebo
Procedure: Data were collected following stimulation by a lipopolysaccharide (LPS) at a single time point (5 hours) in each isolated ex vivo human whole blood sample collected. […]. Cytokines evaluated include: IL-1b, IL-1RA, IL-2, IL-7, IL-8, IL-9, IL-10, basic FGF, GCSF, GMCSF, IFNγ, IP-10, MCP-1, MIP-1α, MIP-1β, PDGF, TNFα, and VEGF.

[2] = test subjects
[3] = tested on: lung polymorphonuclear neutrophils (PMN); experiment: Rat model of pulmonary inflammation (LPS aerosol), lung lavage PMN count; settings: oral 1 mg/kg or 10 mg/kg, 4 hours after LPS exposure, versus vehicle
Procedure: One hour after administration, animals were placed in an aerosol chamber containing 60 μg/mL lipopolysaccharide (LPS) for 40 minutes and then removed to room air. Four hours after LPS exposure, lungs of the animals were lavaged with cold D-PBS/EDTA solution and the total number of polymorphonuclear neutrophils (PMN) in the solution were counted as an indicator of the inflammatory response.

[4] = Cohort 1 (SAD), 100 mg ATI-450 once daily
[5] = Cohort 2 (MAD), 50 mg ATI-450 twice daily

Cc1cnc(-c2ccnc(C(C)(C)O)n2)cc1-n1c(C)cc(OCc2ncc(F)cc2F)c(Cl)c1=O (single isomer, unassigned) [ATI-450, 3-chloro-4-((3,5-difluoropyridin-2-yl)methoxy)-2′-(2-(2-hydroxypropan-2-yl)pyrimidin-4-yl)-5′,6-dimethyl-2H-[1,4′-bipyridin]-2-one]
LPS-stimulated IL-6, IL-8, MIP-1β, G-CSF, IL-1RA, IP-10, and MCP-1 levels ([1]; 50 mg ATI-450 twice daily): reduction | LPS-stimulated IL-6, IL-8, and MIP-1β release ([1]; 100 mg ATI-450 once daily): reduction | GCSF Not Stimulated [1, 4]: 25.01 pg/mL | GCSF Stimulated [1, 4]: 232.34 pg/mL | GMCSF Not Stimulated [1, 4]: 0.46 pg/mL | GMCSF Stimulated [1, 4]: 25.12 pg/mL | IFNγ Not Stimulated [1, 4]: 12.54 pg/mL | IFNγ Stimulated [1, 4]: 57.72 pg/mL | IL-1RA Not Stimulated [1, 4]: 974.42 pg/mL | IL-1RA Stimulated [1, 4]: 7169.95 pg/mL | IL-1β Not Stimulated [1, 4]: 1.86 pg/mL | IL-1β Stimulated [1, 4]: 776.88 pg/mL | IL-2 Not Stimulated [1, 4]: 0.65 pg/mL | IL-2 Stimulated [1, 4]: 30.06 pg/mL | IL-6 Not Stimulated [1, 4]: 15.28 pg/mL | IL-6 Stimulated [1, 4]: 8700.41 pg/mL | IL-7 Not Stimulated [1, 4]: 8.79 pg/mL | IL-7 Stimulated [1, 4]: 8.04 pg/mL | IL-8 Not Stimulated [1, 4]: 1564.00 pg/mL | IL-8 Stimulated [1, 4]: 24421.33 pg/mL | IL-9 Not Stimulated [1, 4]: 0.00 pg/mL | IL-9 Stimulated [1, 4]: 0.00 pg/mL | IL-10 Not Stimulated [1, 4]: 22.57 pg/mL | IL-10 Stimulated [1, 4]: 752.46 pg/mL | IP-10 Not Stimulated [1, 4]: 288.07 pg/mL | IP-10 Stimulated [1, 4]: 1487.58 pg/mL | MCP-1 Not Stimulated [1, 4]: 1026.37 pg/mL | MCP-1 Stimulated [1, 4]: 1215.21 pg/mL | MIP-1α Not Stimulated [1, 4]: 105.22 pg/mL | MIP-1α Stimulated [1, 4]: 32722.63 pg/mL | MIP-1β Not Stimulated [1, 4]: 504.74 pg/mL | MIP-1β Stimulated [1, 4]: 49549.56 pg/mL | TNFα Not Stimulated [1, 4]: 8.57 pg/mL | TNFα Stimulated [1, 4]: 5270.06 pg/mL | VEGF Not Stimulated [1, 4]: 186.34 pg/mL | VEGF Stimulated [1, 4]: 231.92 pg/mL | bFGF Not Stimulated [1, 4]: 29.69 pg/mL | bFGF Stimulated [1, 4]: 28.63 pg/mL | inhibition of LPS-stimulated IL-1RA ([1]; Cohort 1 and Cohort 2): about 30% | inhibition of LPS-stimulated IL-10 ([1]; Cohort 1 and Cohort 2): about 30% | GCSF Not Stimulated [1, 5]: 16.33 pg/mL | GCSF Stimulated [1, 5]: 292.44 pg/mL | GMCSF Not Stimulated [1, 5]: 0.21 pg/mL | GMCSF Stimulated [1, 5]: 19.15 pg/mL | IFNγ Not Stimulated [1, 5]: 33.45 pg/mL | IFNγ Stimulated [1, 5]: 57.81 pg/mL | IL-1RA Not Stimulated [1, 5]: 893.81 pg/mL | IL-1RA Stimulated [1, 5]: 13830.24 pg/mL | IL-1β Not Stimulated [1, 5]: 2.25 pg/mL | IL-1β Stimulated [1, 5]: 381.38 pg/mL | IL-2 Not Stimulated [1, 5]: 2.86 pg/mL | IL-2 Stimulated [1, 5]: 14.18 pg/mL | IL-6 Not Stimulated [1, 5]: 5.70 pg/mL | IL-6 Stimulated [1, 5]: 9359.59 pg/mL | IL-7 Not Stimulated [1, 5]: 7.40 pg/mL | IL-7 Stimulated [1, 5]: 6.87 pg/mL | IL-8 Stimulated [1, 5]: 30259.47 pg/mL | IL-9 Not Stimulated [1, 5]: 3.10 pg/mL | IL-9 Stimulated [1, 5]: 2.77 pg/mL | IL-10 Not Stimulated [1, 5]: 2.05 pg/mL | IL-10 Stimulated [1, 5]: 108.90 pg/mL | IP-10 Not Stimulated [1, 5]: 474.58 pg/mL | IP-10 Stimulated [1, 5]: 1513.02 pg/mL | MCP-1 Not Stimulated [1, 5]: 728.09 pg/mL | MCP-1 Stimulated [1, 5]: 1124.80 pg/mL | MIP-1α Not Stimulated [1, 5]: 193.51 pg/mL | MIP-1α Stimulated [1, 5]: 38207.05 pg/mL | MIP-1β Not Stimulated [1, 5]: 806.79 pg/mL | MIP-1β Stimulated [1, 5]: 89906.73 pg/mL | TNFα Not Stimulated [1, 5]: 13.44 pg/mL | TNFα Stimulated [1, 5]: 6402.98 pg/mL | VEGF Not Stimulated [1, 5]: 202.39 pg/mL | VEGF Stimulated [1, 5]: 191.77 pg/mL | bFGF Not Stimulated [1, 5]: 25.04 pg/mL | bFGF Stimulated [1, 5]: 24.50 pg/mL | inhibition at 50 mg ([1]; read-out: inhibition of LPS-stimulated GM-CSF): ≥ 70% | inhibition at 50 mg ([1]; read-out: inhibition of LPS-stimulated IFNγ): ≥ 70% | inhibition at 50 mg ([1]; read-out: inhibition of LPS-stimulated IL-2): ≥ 70% | inhibition at 50 mg ([1]; read-out: inhibition of LPS-stimulated MIP-1α): ≥ 70% | tolerability [2]: well tolerated | total lung PMNs [3]: significantly reduced
